Experimental data reported in PubChem BioAssay AID256 (DTP/NCI, 2004).
Where “and” joins values, the source holds several entries; their conditions need not be identical. Identical values can stand only once. Toxic doses and inconclusive results are not listed. How the source made its calls: active means survival T/C of 150% or more; inactive means T/C below 125% in these data.

Tested on: CD2F1 mice, L1210 leukemia ip, survival T/C
Assay: NCI In Vivo Anticancer Drug Screen. Data for tumor model L1210 Leukemia (intraperitoneal) in CD2F1 (CDF1) mice
Conditions: endpoint: mean survival time, vehicle: saline with Tween-80, higher = longer survival
How it was run: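 Activity against a transplanted murine tumor was judged by comparing the compound group with a vehicle group. The outcome in the treated animals was divided by that in the controls.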

Measured: T/C

O=C(NCC#CCN1CCCC1)Nc1cccc(Cl)c1
inactive: dose: 12.5 mg/kg/injection, schedule: Q04DX002 (ip) 102 % of control | dose: 25.0 mg/kg/injection, schedule: Q01DX001 (ip) 92 % of control | dose: 25.0 mg/kg/injection, schedule: Q04DX002 (ip) 95 % of control | dose: 50.0 mg/kg/injection, schedule: Q01DX001 (ip) 106 % of control | dose: 50.0 mg/kg/injection, schedule: Q04DX002 (ip) 87 % of control | dose: 100.0 mg/kg/injection, schedule: Q01DX001 (ip) 92 % of control and 93 % of control | dose: 100.0 mg/kg/injection, schedule: Q04DX002 (ip) 98 % of control
